Measured values reported in patent publication US20200247800A1, “SUBSTITUTED BICYCLIC HETEROCYCLIC COMPOUNDS AS NADPH OXIDASE INHIBITORS” (Glenmark Pharmaceuticals S.A., priority 2017, published 2020).

Biological target: T1, human NOX4 (Homo sapiens, UniProt Q9NPH5)
T1 construct: expressed in transfected cells; membrane fraction used
T1 sequence (Q9NPH5 1-578): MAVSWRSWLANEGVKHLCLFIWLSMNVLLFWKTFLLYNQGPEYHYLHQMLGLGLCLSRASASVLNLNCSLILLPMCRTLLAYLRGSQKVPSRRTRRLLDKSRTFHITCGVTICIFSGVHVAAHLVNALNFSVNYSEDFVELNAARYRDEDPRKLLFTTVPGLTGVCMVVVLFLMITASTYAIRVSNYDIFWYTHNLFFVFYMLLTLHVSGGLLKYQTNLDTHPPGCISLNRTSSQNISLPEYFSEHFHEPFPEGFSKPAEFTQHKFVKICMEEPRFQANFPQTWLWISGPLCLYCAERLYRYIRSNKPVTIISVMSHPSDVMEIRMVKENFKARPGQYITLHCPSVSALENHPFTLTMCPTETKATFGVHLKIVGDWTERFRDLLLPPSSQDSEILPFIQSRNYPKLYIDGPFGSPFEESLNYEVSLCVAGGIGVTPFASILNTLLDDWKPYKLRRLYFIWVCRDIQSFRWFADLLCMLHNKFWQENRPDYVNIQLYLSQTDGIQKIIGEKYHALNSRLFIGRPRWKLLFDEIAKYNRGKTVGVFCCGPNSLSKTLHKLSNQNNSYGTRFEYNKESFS
T1 sequence (P13498 1-195 partner): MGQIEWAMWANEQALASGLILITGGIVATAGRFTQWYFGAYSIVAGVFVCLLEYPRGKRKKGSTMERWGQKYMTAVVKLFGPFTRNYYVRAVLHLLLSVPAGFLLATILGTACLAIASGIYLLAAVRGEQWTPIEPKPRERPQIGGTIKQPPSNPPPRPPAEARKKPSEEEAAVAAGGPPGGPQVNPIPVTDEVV
Assay: Cell free membrane based in vitro NOX4 assay: H2O2 production by membranes expressing human NOX4, measured with Amplex Red
Type: biochemical
Details: for inhibition at 1 µM: 1.0 μM compound, read-out: Percentage inhibition at 1.0 μM; for IC50: class symbols; for inhibition at 10 µM: 10.0 μM compound, read-out: Percentage inhibition at 10.0 μM
Procedure, shortened: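 Membranes from HEK cells stably overexpressing human NOX4 were preincubated 20 min with inhibitor in pH 7.4 HEPES buffer containing HRP and Amplex Red, then NADPH was added. H2O2 was followed for 10 min by fluorescence (ex 544/em 590 nm). IC50 from nonlinear regression of % maximal uninhibited response.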

Row | Compound | inhibition at 1 µM [%] | IC50 [nM] | inhibition at 10 µM [%]
1 | CCc1nn(C)c2[nH]c(-c3ccc(OC)cc3F)c(O)c(=O)c12 [Example 72, 3-Ethyl-6-(2-fluoro-4-methoxyphenyl)-5-hydroxy-1-methyl-1H-pyrazolo[3,4-b]pyridin-4(7H)-one] | 82.2 | 100 to 150 | 
2 | CCc1nn(C)c2[nH]c(-c3ccc(OC)cc3Cl)c(O)c(=O)c12 [Example 73, 6-(2-Chloro-4-methoxyphenyl)-3-ethyl-5-hydroxy-1-methyl-1H-pyrazolo[3,4-b]pyridin-4(7H)-one] | 79.8 | 50 to 100 | 73.1
3 | Cc1nn(C(C)C)c2[nH]c(-c3c(F)cccc3F)c(O)c(=O)c12 [Example 74, 6-(2,6-Difluorophenyl)-5-hydroxy-1-isopropyl-3-methyl-1H-pyrazolo[3,4-b]pyridin-4(7H)-one] | 91.1 | 50 to 100 | 90.3
4 | CC(C)c1c2c(=O)c(O)c(-c3ccccc3Cl)[nH]c2nn1C [Example 75, 6-(2-Chlorophenyl)-5-hydroxy-3-isopropyl-2-methyl-2H-pyrazolo[3,4-b]pyridin-4(7H)-one] | 1.59 |  | 12.5
5 | Cc1nn(Cc2ccccc2)c2[nH]c(-c3c(F)cccc3F)c(O)c(=O)c12 [Example 76, 1-Benzyl-6-(2,6-difluorophenyl)-5-hydroxy-3-methyl-1H-pyrazolo[3,4-b]pyridin-4(7H)-one] | 95 | < 50 | 93.5
6 | COc1ccc(-c2[nH]c3c(c(C)nn3Cc3ccccc3)c(=O)c2O)c(F)c1 [Example 77, 1-Benzyl-6-(2-fluoro-4-methoxyphenyl)-5-hydroxy-3-methyl-1H-pyrazolo[3,4-b]pyridin-4(7H)-one] | 88.9 | 100 to 150 | 72.1
7 | NC(=O)c1nsc2c(=O)c(O)c(-c3ccccc3Cl)[nH]c12 [Example 78, 5-(2-Chlorophenyl)-6-hydroxy-7-oxo-4,7-dihydroisothiazolo[4,5-b]pyridine-3-carboxamide] | 55.3 | > 150 | 89.3
8 | CCCn1nc(C)c2c(=O)c(O)c(-c3c(F)cccc3F)[nH]c21 [Example 79, 6-(2,6-Difluorophenyl)-5-hydroxy-3-methyl-1-propyl-1H-pyrazolo[3,4-b]pyridin-4(7H)-one] | 78.4 | 100 to 150 | 81.6
9 | Cc1nn(CCN(C)C)c2[nH]c(-c3ccccc3Cl)c(O)c(=O)c12 [Example 80, 6-(2-Chlorophenyl)-1-(2-(dimethylamino)ethyl)-5-hydroxy-3-methyl-1H-pyrazolo[3,4-b]pyridin-4(7H)-one] | 94 | 50 to 100 | 97.5
10 | CCn1nc(C)c2c(=O)c(O)c(-c3cc(F)ccc3F)[nH]c21 [Example 81, 6-(2,5-Difluorophenyl)-1-ethyl-5-hydroxy-3-methyl-1H-pyrazolo[3,4-b]pyridin-4(7H)-one] | 93.3 | > 150 | 81.5
11 | CCCn1nc(C)c2c(=O)c(O)c(-c3ccc(OC)cc3F)[nH]c21 [Example 82, 6-(2-Fluoro-4-methoxyphenyl)-5-hydroxy-3-methyl-1-propyl-1H-pyrazolo[3,4-b]pyridin-4(7H)-one] | 87.5 | 50 to 100 | 
12 | Cc1nn(C)c2c(=O)c(O)c(-c3ccccc3Cl)[nH]c12 [Example 83, 5-(2-Chlorophenyl)-6-hydroxy-1,3-dimethyl-1H-pyrazolo[4,3-b]pyridin-7(4H)-one] | 74.4 | > 150 | 99
13 | Cc1nn(Cc2ccc(F)cc2)c2[nH]c(-c3c(F)cccc3F)c(O)c(=O)c12 [Example 84, 6-(2,6-Difluorophenyl)-1-(4-fluorobenzyl)-5-hydroxy-3-methyl-1H-pyrazolo[3,4-b]pyridin-4(7H)-one] | 80.2 | > 150 | 88.6
14 | Cn1nc(C(F)F)c2c(=O)c(O)c(-c3ccccc3Cl)[nH]c21 [Example 85, 6-(2-Chlorophenyl)-3-(difluoromethyl)-5-hydroxy-1-methyl-1H-pyrazolo[3,4-b]pyridin-4(7H)-one] | 72.5 | > 150 | 88
15 | Cn1nc(C(F)F)c2c(=O)c(O)c(-c3c(F)cccc3F)[nH]c21 [Example 86, 3-(Difluoromethyl)-6-(2,6-difluorophenyl)-5-hydroxy-1-methyl-1H-pyrazolo[3,4-b]pyridin-4(7H)-one] | 74.5 | > 150 | 89.8
16 | Cc1nn(C2CC2)c2[nH]c(-c3c(F)cccc3F)c(O)c(=O)c12 [Example 87, 1-Cyclopropyl-6-(2,6-difluorophenyl)-5-hydroxy-3-methyl-1H-pyrazolo[3,4-b]pyridin-4(7H)-one] | 78.2 | 100 to 150 | 88.5
17 | Cc1nn(CCN2CCOCC2)c2[nH]c(-c3c(F)cccc3F)c(O)c(=O)c12 [Example 88, 6-(2,6-Difluorophenyl)-5-hydroxy-3-methyl-1-(2-morpholinoethyl)-1H-pyrazolo[3,4-b]pyridin-4(7H)-one] | 100 | 50 to 100 | 100
18 | Cc1nn(CCN(C)C)c2[nH]c(-c3c(F)cccc3F)c(O)c(=O)c12 [Example 89, 6-(2,6-Difluorophenyl)-1-(2-(dimethylamino)ethyl)-5-hydroxy-3-methyl-1H-pyrazolo[3,4-b]pyridin-4(7H)-one] | 100 | 50 to 100 | 100
19 | COCCn1nc(C)c2c(=O)c(O)c(-c3c(F)cccc3F)[nH]c21 [Example 90, 6-(2,6-Difluorophenyl)-5-hydroxy-1-(2-methoxyethyl)-3-methyl-1H-pyrazolo[3,4-b]pyridin-4(7H)-one] | 100 | 50 to 100 | 100
20 | CC(C)c1nn(C)c2[nH]c(-c3c(F)cccc3F)c(O)c(=O)c12 [Example 91, 6-(2,6-Difluorophenyl)-5-hydroxy-3-isopropyl-1-methyl-1H-pyrazolo[3,4-b]pyridin-4(7H)one] | 98.3 | 50 to 100 | 87.1
21 | COCCCn1nc(C)c2c(=O)c(O)c(-c3c(F)cccc3F)[nH]c21 [Example 92, 6-(2,6-Difluorophenyl)-5-hydroxy-1-(3-methoxypropyl)-3-methyl-1H-pyrazolo[3,4-b]pyridin-4(7H)-one] | 75.6 | 100 to 150 | 76.5
22 | Cc1ccc(F)c(-c2[nH]c3c(c(C)nn3C3CC3)c(=O)c2O)c1F [Example 93, 1-Cyclopropyl-6-(2,6-difluoro-3-methylphenyl)-5-hydroxy-3-methyl-1H-pyrazolo[3,4-b]pyridin-4(7H)-one] | 69.1 | > 150 | 79.6
23 | Cc1nn(C2CC2)c2[nH]c(-c3c(F)cc(F)cc3F)c(O)c(=O)c12 [Example 94, 1-Cyclopropyl-5-hydroxy-3-methyl-6-(2,4,6-trifluorophenyl)-1H-pyrazolo[3,4-b]pyridin-4(7H)-one] | 72.5 | > 150 | 80
24 | CCn1nc(C)c2c(=O)c(O)c(-c3cccc(F)c3F)[nH]c21 [Example 95, 6-(2,3-Difluorophenyl)-1-ethyl-5-hydroxy-3-methyl-1H-pyrazolo[3,4-b]pyridin-4(7H)-one] | 71.1 | > 150 | 62.6
25 | Cc1nn(C2CC2)c2[nH]c(-c3cccc(F)c3F)c(O)c(=O)c12 [Example 96, 1-Cyclopropyl-6-(2,3-difluorophenyl)-5-hydroxy-3-methyl-1H-pyrazolo[3,4-b]pyridin-4(7H)-one] | 67.3 | > 150 | 72.3
26 | CCn1nc(C)c2c(=O)c(O)c(-c3c(F)cc(F)cc3F)[nH]c21 [Example 97, 1-Ethyl-5-hydroxy-3-methyl-6-(2,4,6-trifluorophenyl)-1H-pyrazolo[3,4-b]pyridin-4(7H)-one] | 76.7 | > 150 | 78.2
27 | O=c1c(O)c(-c2c(F)cccc2F)[nH]c2[nH]nc(C(F)(F)F)c12 [Example 98, 6-(2,6-Difluorophenyl)-5-hydroxy-3-(trifluoromethyl)-1H-pyrazolo[3,4-b]pyridin-4(7H)-one] | 86.4 | 50 to 100 | 93.4
28 | CCn1nc(C(F)F)c2c(=O)c(O)c(-c3c(F)cccc3F)[nH]c21 [Example 99, 3-(Difluoromethyl)-6-(2,6-difluorophenyl)-1-ethyl-5-hydroxy-1H-pyrazolo[3,4-b]pyridin-4(7H)-one] | 71.3 | > 150 | 85.1
